Like-named read-outs stand apart in the source and are kept apart here.
Legend:
KtrAB [1] = target: T1, KtrAB (Bacillus subtilis, UniProt O32081); experiment: ACMA fluorescence K+ efflux assay in proteoliposomes, 96-well, Hill fit of final fluorescence; assay type: biochemical
T1 construct: gene ktrB; purified complex of dimeric membrane protein KtrB and octameric cytoplasmic KtrA ring, reconstituted in liposomes; with Ktr system potassium uptake protein A

KtrAB [2] = target: T2, KtrAB (Bacillus subtilis, UniProt O32081, R417K); experiment: ACMA fluorescence K+ efflux assay in proteoliposomes, single concentration; assay type: biochemical; settings: ATP form; also tested in the ADP form
T2 construct: gene ktrB; purified complex of dimeric membrane protein KtrB and octameric cytoplasmic KtrA ring, reconstituted in liposomes; with Ktr system potassium uptake protein A

KtrB = target: T3, KtrB (Bacillus subtilis, UniProt O32081); experiment: ACMA fluorescence K+ efflux assay in proteoliposomes, 96-well, Hill fit of final fluorescence; assay type: biochemical
T3 construct: purified membrane subunit KtrB alone (no KtrA), reconstituted in liposomes; dimer

NaKΔN19/F92A = target: T4, NaKΔN19/F92A (Bacillus cereus, UniProt Q81HW2, F92A); settings: read-out: KI; no nucleotide; pH 8.0; KI defined as constant of 50% inhibition
T4 construct: gene BC_0669
T4 sequence (Q81HW2 19-110 F92A): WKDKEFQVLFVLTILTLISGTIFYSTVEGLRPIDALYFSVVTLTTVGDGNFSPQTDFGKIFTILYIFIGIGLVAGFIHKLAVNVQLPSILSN

T1 sequence (O32081 whole entry): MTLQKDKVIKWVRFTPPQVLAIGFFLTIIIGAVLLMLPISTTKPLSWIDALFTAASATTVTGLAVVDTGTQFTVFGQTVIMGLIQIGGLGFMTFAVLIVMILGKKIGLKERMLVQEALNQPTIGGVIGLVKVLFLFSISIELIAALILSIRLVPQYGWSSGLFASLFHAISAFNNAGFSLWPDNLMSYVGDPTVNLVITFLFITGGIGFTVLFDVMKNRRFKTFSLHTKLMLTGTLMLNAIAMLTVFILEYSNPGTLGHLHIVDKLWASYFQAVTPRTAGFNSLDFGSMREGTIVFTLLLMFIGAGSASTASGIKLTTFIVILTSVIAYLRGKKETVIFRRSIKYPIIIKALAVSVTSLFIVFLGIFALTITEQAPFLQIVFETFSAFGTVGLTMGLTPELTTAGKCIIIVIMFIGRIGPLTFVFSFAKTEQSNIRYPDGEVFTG
T1 sequence (O32080 whole entry, further chain): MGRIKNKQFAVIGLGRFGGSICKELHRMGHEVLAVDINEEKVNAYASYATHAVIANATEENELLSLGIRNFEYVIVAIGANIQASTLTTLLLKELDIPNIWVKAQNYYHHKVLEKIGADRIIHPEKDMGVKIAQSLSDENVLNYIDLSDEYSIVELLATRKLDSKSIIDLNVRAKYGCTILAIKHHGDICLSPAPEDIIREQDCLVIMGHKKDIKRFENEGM
T3 sequence (O32081 whole entry): as the sequence (O32081 whole entry) above
T2 sequence (O32080 whole entry): as the sequence (O32080 whole entry, further chain) above
T2 sequence (O32081 whole entry R417K): as the sequence (O32081 whole entry) above, with R417K counted along it

SMILES | IC50 (KtrAB [1]; read-out: KI) [µM] | further results
CCN(CC)CCn1c(=N)n(CC(=O)C23CC4CC(CC(C4)C2)C3)c2ccccc21 [compound 21, compound #21] | 0.8 | –
O=C(Nc1ccc(Cl)cc1)Nc1cccc(C(F)(F)F)c1 [compound 36, compound #36] | – | % inhibition at 6 μM (KtrAB [2]): all tested compounds showed inhibition with both the active and inactive forms of KtrABR417K; IC50 (KtrAB [1]; 0.1 mM ATP (active state), 0.5 mM MgCl2, pH 8.0, KI defined as constant of 50% inhibition, read-out: KI): 8 µM; IC50 (KtrB; no nucleotide, KtrB alone, pH 8.0, KI defined as constant of 50% inhibition, read-out: KI): 0.5 µM
CCCN1CCC(N(CCc2ccccc2)Cc2ccccc2)CC1 [compound 31, compound #31] | 1 | –
COc1ccc(CN2CCN(c3cccc(C)c3C)CC2)c(OC)c1 [compound 6, compound #6] | 1 | IC50 (NaKΔN19/F92A): 16 µM
Cc1cc(C)c(OCC(O)CNC(C)(C)CC(C)(C)C)c(C)c1 (centres unmarked) [compound 1, compound #1] | 2 | IC50 (NaKΔN19/F92A): 14 µM
OC(CN1CCCCCC1)CN(c1ccccc1)c1ccccc1 (centres unmarked) [compound 3, compound #3] | 2 | –
CC1CCCC(C)N1CC(O)COc1ccc(Cl)cc1 (centres unmarked) [compound 41, compound #41] | 3 | –
Cc1cc(C)c(C)c(OCCCCN2CCCCC2)c1 [compound 25, compound #25] | 2 | –
COc1ccc(Br)cc1CNCCc1cccc(F)c1 [compound 39, compound #39] | – | IC50 (KtrAB [1]): 4 µM; IC50 (KtrB): 3.8 µM

Source: PMC7956971, “Fluorometric Liposome Screen for Inhibitors of a Physiologically Important Bacterial Ion Channel” (Frontiers in Microbiology, 2021)
